Read-outs that look alike come from different tables or passages of the source.
How the values were obtained:
[1] = test system: engorged adult female cattle ticks (Boophilus microplus); assay: Boophilus microplus injection test; format: in vivo; conditions: application rate 20 μg/animal, assessed after 7 days
Experimental: Boophilus microplus—Injection Test
Solvent: dimethyl sulphoxide
To produce an appropriate active ingredient formulation, 10 mg of active ingredient are mixed with 0.5 ml of solvent and the concentrate is diluted with solvent to the desired concentration.
1 μl of the active ingredient solution is injected into the abdomen of 5 engorged adult female cattle ticks (Boophilus microplus). The animals are transferred into dishes and kept in a climate-controlled room.
The efficacy is assessed after 7 days by laying of fertile eggs. Eggs which are not visibly fertile are stored in a climate-controlled cabinet until the larvae hatch after about 42 days. An efficacy of 100% means that none of the ticks has laid any fertile eggs; 0% means that all the eggs are fertile.

[2] = test system: greenhouse red spider mite (Tetranychus urticae); assay: Tetranychus urticae spray test, OP-resistant (bean leaf discs); format: in vivo; conditions: application rate 500 g/ha, after 6 days; for pest or weed control at 500 g/ha: Tetranychus urticae, foliar, 144 h, read-out: efficacy (spider mites killed)
Outline: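 Compound dissolved in acetone/DMF and diluted in water with 1000 ppm alkylaryl polyglycol ether emulsifier, then sprayed on bean leaf discs infested with all stages of OP-resistant T. urticae. Mortality in % scored after 6 days (100% = all mites killed).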

[3] = log P by reversed-phase HPLC analogously to OECD Guideline 117; format: physicochemical; conditions: for chromatographic logP: reversed-phase C18 HPLC column
Outline: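 Retention on reversed-phase C18 HPLC (LC-MS), acidic runs at pH 2.7 with formic acid or trifluoroacetic acid/acetonitrile gradients, neutral runs at pH 7.8 with 0.001 molar ammonium hydrogencarbonate/acetonitrile. log P obtained by linear interpolation of retention times against unbranched alkan-2-ones (C3–C16) of known log P.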

[4] = test system: southern root-knot nematode (Meloidogyne incognita); assay: Meloidogyne incognita test (sand, lettuce, acetone solvent, 14 days); format: in vivo; conditions: application rate 20 ppm, after 14 days; for pest or weed control at 20 ppm: Meloidogyne incognita, 336 h, read-out: nematicidal efficacy (formation of galls)
Experimental: Meloidogyne incognita Test
Solvent: 125.0 parts by weight of acetone
To produce an appropriate active ingredient formulation, 1 part by weight of active ingredient is mixed with the stated amount of solvent and the concentrate is diluted with water to the desired concentration.
Vessels are filled with sand, active ingredient solution, an egg/larvae suspension of the southern root-knot nematode (Meloidogyne incognita) and lettuce seeds. The lettuce seeds germinate and the plants develop. The galls develop on the roots
After 14 days, the nematicidal efficacy in % is determined by the formation of galls. 100% means that no galls were found; 0% means that the number of galls on the treated plants corresponds to the untreated control.

[5] = test system: greenhouse red spider mite (Tetranychus urticae); assay: Tetranychus urticae spray test, OP-resistant (bean plants); format: in vivo; conditions: application rate 20 ppm, after 7 days
Experimental: Tetranychus urticae—Spray Test, OP-Resistant
Solvent: 7 parts by weight of dimethylformamide
Emulsifier: alkylaryl polyglycol ether
To produce an appropriate active ingredient formulation, 1 part by weight of active ingredient is dissolved using the specified parts by weight of solvent and made up with water containing an emulsifier concentration of 1000 ppm until the desired concentration is attained. To produce further test concentrations, the preparation is diluted with emulsifier-containing water. If the addition of ammonium salts or/and penetrants is required, these are each added in a concentration of 1000 ppm to the formulation solution.
Bean plants (Phaseolus vulgaris) heavily infested by all stages of the greenhouse red spider mite (Tetranychus urticae) are treated by spraying with the active ingredient formulation in the desired concentration.
After 7 days, the efficacy in % is determined. 100% means that all the spider mites have been killed; 0% means that none of the spider mites have been killed.

[6] = [a] acidic range, pH 2.7, formic acid (or trifluoroacetic acid)/acetonitrile
[7] = [b] neutral range, pH 7.8, ammonium hydrogencarbonate/acetonitrile
[8] = pH 2.7, running text, [a] acidic range, pH 2.7, read-out: log P[a]
[9] = pH 2.7, table column, [a] acidic range, pH 2.7, formic acid (or trifluoroacetic acid)/acetonitrile, read-out: LogP[a]

Row | Compound | efficacy (no fertile eggs laid) [1] [%] | efficacy (spider mites killed) [2] [%] | LogP[a] [3, 6] | LogP[b] [3, 7] | nematicidal efficacy (formation of galls) [4] [%] | pest or weed control at 500 g/ha [2] [%] | chromatographic logP [3, 8] | chromatographic logP [3, 9] | chromatographic logP ([3]; pH 7.8, running text, [b] neutral range, pH 7.8, read-out: log P[b]) | chromatographic logP ([3]; pH 7.8, table column, [b] neutral range, pH 7.8, ammonium hydrogencarbonate/acetonitrile, read-out: LogP[b]) | pest or weed control at 20 ppm [4] [%] | efficacy (spider mites killed) [5] [%]
1 | Cc1cc(F)c(-n2ncc(=O)n(CC(C)C)c2=O)cc1SCC(F)(F)F [compound 20] | 100 | 100 | 4.03 | 4 | 90 | – | – | – | – | – | – | –
2 | CCn1c(=O)cnn(-c2cc(SCC(F)(F)F)c(C)cc2F)c1=O [compound 19] | 100 | 100 | 3.31 | 3.27 | 90 | – | – | – | – | – | – | –
3 | Cc1cc(C)c([S+]([O-])CC(F)(F)F)cc1-n1ncc(=O)n(C)c1=O (racemic) [compound 4] | 100 | 100 | 2.01 | – | – | – | – | – | – | – | – | –
4 | Cc1cc(F)c(-n2ccc(=O)n(C)c2=O)cc1[S+]([O-])CC(F)(F)F (stereo not drawn) [Ex. No. 54, 1-{2-Fluoro-4-methyl-5-[(2,2,2-trifluoroethyl)sulphinyl]phenyl}-3-methylpyrimidine-2,4(1H,3H)-dione] | 100 | – | – | – | – | 100 | 1.66 | 1.61 | 1.61 | 1.66 | 100 | –
5 | Cc1cc(F)c(-n2ncc(=O)n(CC(F)(F)F)c2=O)cc1[S+]([O-])CC(F)(F)F (racemic) [compound 9] | 100 | 100 | 2.65 | – | 100 | – | – | – | – | – | – | –
6 | O=c1cnn(-c2cc([S+]([O-])CC(F)(F)F)c(Cl)cc2Cl)c(=O)n1CC(F)(F)F (racemic) [compound 11] | 100 | 100 | 3.21 | – | 90 | – | – | – | – | – | – | –
7 | Cc1cc(C)c([S+]([O-])CC(F)(F)F)cc1-n1ncc(=O)n(CC(F)(F)F)c1=O (racemic) [compound 6] | 100 | 90 | 2.73 | – | – | – | – | – | – | – | – | –
8 | Cc1cc(C)c([S+]([O-])CC(F)(F)F)cc1-n1ncc(=O)n(CC(F)(F)F)c1=O (single isomer, unassigned) [compound 47] | – | – | 2.72 | 2.66 | – | – | – | – | – | – | – | 100
9 | Cc1cc(F)c(-n2ncc(=O)n(CC(C)C)c2=O)cc1[S+]([O-])CC(F)(F)F (racemic) [compound 22] | 100 | 100 | 2.92 | 2.9 | 90 | – | – | – | – | – | – | –
10 | Cc1cc(F)c(-n2ccc(=O)n(CC(F)F)c2=O)cc1SCC(F)(F)F [compound 82] | – | – | 2.99 | 3.06 | 100 | – | – | – | – | – | – | 100
11 | CCn1c(=O)cnn(-c2cc([S+]([O-])CC(F)(F)F)c(C)cc2F)c1=O (racemic) [compound 21] | 100 | 100 | 2.24 | 2.22 | 100 | – | – | – | – | – | – | –
12 | Cc1cc(F)c(-n2ncc(=O)n(C)c2=O)cc1SCC(F)(F)F [Ex. No. 3, 2-{2-Fluoro-4-methyl-5-[(2,2,2-trifluoroethyl)sulphanyl]phenyl}-4-methyl-1,2,4-triazine-3,5(2H,4H)-dione] | 100 | – | – | – | – | 100 | 2.94 | 2.94 | – | – | 90 | –
13 | Cc1cc(F)c(-n2ncc(=O)n(Cc3ccccc3)c2=O)cc1[S+]([O-])CC(F)(F)F (racemic) [compound 45] | – | – | 3.00 | 2.9 | – | – | – | – | – | – | – | 90
14 | COCn1c(=O)ccn(-c2cc(SCC(F)(F)F)c(C)cc2F)c1=O [compound 80] | – | – | 2.62 | 2.66 | 100 | – | – | – | – | – | – | 100
